In patent publication US9840494B2, “Quinazoline derivative” (Tianjin Hemay Oncology Pharmaceutical Co., Ltd., priority 2013, dated 2017):

Tests used:
[1] = Bioavailability assay in rats, Experiment IV (dimethylsulfonate); type: in vivo
Source text: Experiment IV Bioavailability Assay for N-[4-(3-chloro-4-fluorophenylamino)-7-(2-methoxyethoxy)quinazolin-6-yl]-2-[1-(2-methoxyethyl)piperidin-4-ylidene]acetamide Dimethylsulfonate in Rats
12 SD rats (half of them were male and half of them were female, 7-10 weeks old, weighting 200-350 g) were purchased from Beijing Vital River Laboratory Animal Technology Co., Ltd., and reared in Animal House, GLP Center, Taiping Road No. 27 courtyard. Production License Number of Beijing Vital River Laboratory Animal Technology Co., Ltd. is SCXK (Beijing) 2009-0002.
Blood (about 0.5 ml) was drawn with glass capillary from the orbital venous plexus at […], 1 h, 2 h, 3 h, 4 h, 6 h, 8 h, 12 h, and 24 h after dosing to each group of animals according to the administration scheme, and put into a heparinized centrifuge tube. The tube was gently shaken up and down, then centrifuged at 3000 r/min for […] at 4° C. The plasma was separated. 50 μl of the plasma was pipetted into a centrifuge tube (5 ml), then 50% methanol aqueous solution (50 μl ) and thienorphine-D4 isotope (50 μl) as an internal standard were added thereto and vortexed. A solution of methanol:acetonitrile=1:3 (volume ratio) was added, vortexed for 30 s so as to mix thoroughly. The resulting mixture was centrifuged at 3000 r/min for 5 mM 500 μL of the supernatant was taken out, to which 500 μl of 20% methanol solution was added for serial dilution. The mixture was vortexed for 30 s so as to mix thoroughly. The mixture was centrifuged at 13000 r/min for 5 mM, and […], of the supernatant was injected for LC/MS/MS assay.
Liquid phase conditions: A: aqueous solution (5 mmol/L ammonium acetate, 0.2% formic acid), B: methanol; column temperature 25° C.; injection volume: 10 μL; gradient elution.
MS conditions: ion source: Turbo Ionspray (ESI+); detection mode: MRM; electrical parameters: compound 1: m/z 544.2-457.1, CE (collision energy): 36.5.
The main pharmacokinetic parameters and oral bioavailability results were calculated by using DAS2.0 (statistical moment).
The pharmacokinetic parameters of statistical moments (n=6) for a single intravenous injection of 5.0 mg/kg in rats
The pharmacokinetic parameters of statistical moments (n=6) for a single intragastric administration of 5.0 mg/kg in rats
Method for the calculation of bioavailability: F=(AUCig×Div)/(AUCiv×Dig)×100%
wherein D is dose; AUC: the area under the plasma drug concentration-time curve; ig represents intragastric administration; and iv represents intravenous injection administration.

[2] = system: human head and neck cancer cell lines Fadu; assay: In vitro inhibitory action on human tumor cells, Fadu (MTT); type: cell-based; conditions: 72 h, MTT assay, usually 3 days
Method: (§1) Human epidermoid carcinoma cell line A431, human non-small cell lung cancer cell line HCC827, head and neck cancer cell lines Fadu and human pancreatic cancer cell line AsPC-1 were purchased from Cell Bank, Chinese Academy of Sciences.
(§2) 3.2 Cell culture method: cells were cultured in the complete medium at 37° C. under 5% CO2 and saturated humidity until logarithmic growth phase, i.e., adherent cells substantially approach complete confluence, and then collected for subsequent assay. For the adherent cells, they were firstly digested with trypsin/EDTA to detach.
(§3) 3.3 A certain number of cells were seeded into 96-well cell culture plates (hereinafter referred to as 96-well plates). […] Finally, total cellular protein in the wells was determined using SRB assay, or cell viability was determined with MTT assay.
(§4) 3.3.1 The cell seeding concentration was determined by cell growth curve assay which completely simulates compound inhibition assay process. […]
(§5) 3.4 Dilution and addition of compounds: the concentration of DMSO that can be tolerant by the cells was determined by DMSO tolerance assay, and thereby selecting the dilution and addition methods of compounds. The effects of different concentrations of DMSO on cell growth were determined by DMSO tolerance assay. […] Two methods are finally determined as follows. […]

[3] = system: human pancreatic cancer cell line AsPC-1; assay: In vitro inhibitory action on human tumor cells, AsPC-1 (MTT); type: cell-based; conditions: ASPC1, 72 h, MTT assay, usually 3 days
Method: as §1, §2, §3, §4, §5

[4] = SD rats, single intragastric administration of 5.0 mg/kg, n=6
[5] = SD rats, single intravenous injection of 5.0 mg/kg, n=6
[6] = both sexes, rat, plasma, po, SD rats, single intragastric administration of 5.0 mg/kg, n=6
[7] = both sexes, rat, plasma, SD rats, single intravenous injection of 5.0 mg/kg, n=6

With `COCCOc1cc2ncnc(Nc3ccc(F)c(Cl)c3)c2cc1NC(=O)C=C1CCN(CCOC)CC1.CS(=O)(=O)O` [Compound 3, N-[4-(3-chloro-4-fluorophenylamino)-7-(2-methoxyethoxy)quinazolin-6-yl]-2-[1-(2-methoxyethyl)piperidin-4-ylidene]acetamide dimethylsulfonate] the “F (bioavailability)” value ([1]; SD rats, 5 mg/kg ig vs 5 mg/kg iv) was 57%, the CLz/F [1, 4] was 75.8 mL/min/kg and the t½z [1, 4] was 5.83 h. It also gave a CLz [1, 5] of 43.8 mL/min/kg, a t½z [1, 5] of 4.06 h and a bioavailability ([1]; both sexes, SD, rat, plasma, oral, 5 mg/kg, 5 mg/kg ig vs 5 mg/kg iv, read-out: F (bioavailability)) of 56.9%. The AUC(0-inf) [1, 6] was 902 ng·h/mL, the AUC(0-t) [1, 6] was 782 ng·h/mL and the Cmax [1, 6] was 75.2 ng/mL. The Tmax [1, 6] was 3.33 h, the Vd/F ([1]; both sexes, rat, plasma, po, SD rats, single intragastric administration of 5.0 mg/kg, n=6, read-out: Vz/F) was 36.9 L/kg and the AUC(0-inf) [1, 7] was 1460 ng·h/mL. The AUC(0-t) [1, 7] was 1370 ng·h/mL, the Cmax [1, 7] was 1220 ng/mL and the Tmax [1, 7] was 0.02 h. The Vd ([1]; both sexes, rat, plasma, SD rats, single intravenous injection of 5.0 mg/kg, n=6, read-out: Vz) was 15.2 L/kg, the IC50 [2] was 132 nM and the IC50 [3] was 4300 nM.
